From patent US20260144788A1, “COMPOUND FOR SHP2 PROTEIN DEGRADATION AND MEDICAL USES THEREOF” (UBIX THERAPEUTICS, INC., priority 2022, published 2026)

Target: T1, SHP2 protein (Homo sapiens, UniProt Q06124)
T1 sequence (Q06124 1-593): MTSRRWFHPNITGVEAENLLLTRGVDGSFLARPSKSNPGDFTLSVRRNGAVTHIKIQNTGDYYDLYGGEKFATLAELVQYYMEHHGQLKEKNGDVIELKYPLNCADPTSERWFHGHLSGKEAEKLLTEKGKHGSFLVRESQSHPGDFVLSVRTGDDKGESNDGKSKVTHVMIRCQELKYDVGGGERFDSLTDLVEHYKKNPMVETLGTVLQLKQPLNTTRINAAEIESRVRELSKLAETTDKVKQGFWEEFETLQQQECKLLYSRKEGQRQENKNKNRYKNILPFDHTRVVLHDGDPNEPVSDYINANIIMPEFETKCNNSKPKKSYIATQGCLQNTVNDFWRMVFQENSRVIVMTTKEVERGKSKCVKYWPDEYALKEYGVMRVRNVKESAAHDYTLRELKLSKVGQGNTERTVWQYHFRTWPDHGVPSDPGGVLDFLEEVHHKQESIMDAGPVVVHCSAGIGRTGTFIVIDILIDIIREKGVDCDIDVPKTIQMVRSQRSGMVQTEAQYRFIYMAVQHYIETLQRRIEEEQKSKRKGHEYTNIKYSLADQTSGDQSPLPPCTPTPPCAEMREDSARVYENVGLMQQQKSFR
Assay: Measurement of SHP2 protein degradation in MV-4-11 cells (western blotting)
Format: cell-based
Parameters: endogenous in cells
Settings: harvested after 24 hours
Summary of the method: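 MV-4-11 cells in IMDM/5% FBS were exposed to compound at final 0.01, 0.1, 1 μM or 0.001, 0.01, 0.1 μM for 24 h, DMSO as negative control. BCA-normalised lysates were immunoblotted for SHP2 with GAPDH as loading control, read on LI-COR Odyssey.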

| SMILES | SHP2% degradation (0.01 μM) [%] | SHP2% degradation (0.1 μM) [%] |
| --- | --- | --- |
| Cc1ncsc1-c1ccc(CNC(=O)[C@@H]2C[C@@H](O)CN2C(=O)[C@@H](NC(=O)C2(F)CC2)C(C)(C)C)c(O[C@H]2CC[C@H](C(=O)N3CC(Nc4nccc(Sc5cnc(N6CCC(C)(CN)CC6)cn5)c4Cl)C3)CC2)c1 [Example 20, (2S,4R)—N-(2-(((1R,4S)-4-(3-((4-((5-(4-(aminomethyl)-4-methylpiperidin-1-yl)pyrazin-2-yl)thio)-3-chloropyridin-2-yl)amino)azetidine-1-carbonyl)cyclohexyl)oxy)-4-(4-methylthiazol-5-yl)benzyl)-1-((S)-2-(1-fluorocyclopropane-1-carboxamido)-3,3-dimethylbutanoyl)-4-hydroxypyrrolidine-2-carboxamide] | 78.8 | 98.2 |
| CC(=O)N[C@H](C(=O)N1C[C@H](O)C[C@H]1C(=O)NCc1ccc(-c2scnc2C)cc1O[C@H]1CC[C@H](C(=O)N2CC(Nc3cccc(Sc4cnc(N5CCC(C)(CN)CC5)cn4)c3Cl)C2)CC1)C(C)(C)C [Example 27, (2S,4R)-1-((S)-2-acetamido-3,3-dimethylbutanoyl)-N-(2-(((1R,4S)-4-(3-((3-((5-(4-(aminomethyl)-4-methylpiperidin-1-yl)pyrazin-2-yl)thio)-2-chlorophenyl)amino)azetidine-1-carbonyl)cyclohexyl)oxy)-4-(4-methylthiazol-5-yl)benzyl)-4-hydroxypyrrolidine-2-carboxamide] | 95.8 | 99.9 |
| Cc1ncsc1-c1ccc(CNC(=O)[C@@H]2C[C@@H](O)CN2C(=O)[C@@H](NC(=O)C2(F)CC2)C(C)(C)C)c(OCCC2CCN(C(=O)C3CN(c4nccc(Sc5cnc(N6CCC(C)(CN)CC6)cn5)c4Cl)C3)CC2)c1 [Example 55, (2S,4R)—N-(2-(2-(1-(1-(4-((5-(4-(aminomethyl)-4-methylpiperidin-1-yl)pyrazin-2-yl)thio)-3-chloropyridin-2-yl)azetidine-3-carbonyl)piperidin-4-yl)ethoxy)-4-(4-methylthiazol-5-yl)benzyl)-1-((S)-2-(1-fluorocyclopropane-1-carboxamido)-3,3-dimethylbutanoyl)-4-hydroxypyrrolidine-2-carboxamide] | 27.5 | 95.0 |
| Cc1ncsc1-c1ccc(CNC(=O)[C@@H]2C[C@@H](O)CN2C(=O)[C@@H](NC(=O)C2(F)CC2)C(C)(C)C)c(OCC2CCN(C(=O)C3CCN(c4nccc(Sc5cnc(N6CCC(C)(CN)CC6)cn5)c4Cl)CC3)CC2)c1 [Example 58, (2S,4R)—N-(2-((1-(1-(4-((5-(4-(aminomethyl)-4-methylpiperidin-1-yl)pyrazin-2-yl)thio)-3-chloropyridin-2-yl)piperidine-4-carbonyl)piperidin-4-yl)methoxy)-4-(4-methylthiazol-5-yl)benzyl)-1-((S)-2-(1-fluorocyclopropane-1-carboxamido)-3,3-dimethylbutanoyl)-4-hydroxypyrrolidine-2-carboxamide] | 82.0 | 97.7 |
| Cc1ncsc1-c1ccc(CNC(=O)[C@@H]2C[C@@H](O)CN2C(=O)[C@@H](NC(=O)C2(F)CC2)C(C)(C)C)c(OCCCCCCN2CCC(CNc3cccc(Sc4cnc(N5CCC(C)(CN)CC5)cn4)c3Cl)CC2)c1 [Example 1, (2S,4R)—N-(2-((6-(4-(((3-((5-(4-(aminomethyl)-4-methylpiperidin-1-yl)pyrazin-2-yl)thio)-2-chlorophenyl)amino)methyl)piperidin-1-yl)hexyl)oxy)-4-(4-methylthiazol-5-yl)benzyl)-1-((S)-2-(1-fluorocyclopropane-1-carboxamido)-3,3-dimethylbutanoyl)-4-hydroxypyrrolidine-2-carboxamide] | −33.4 | 6.5 |
| Cc1ncsc1-c1ccc(CNC(=O)[C@@H]2C[C@@H](O)CN2C(=O)[C@@H](NC(=O)C2(F)CC2)C(C)(C)C)c(O[C@H]2CC[C@H](C(=O)N3CC(CNc4cccc(Sc5cnc(N6CCC(C)(CN)CC6)cn5)c4Cl)C3)CC2)c1 [Example 18, (2S,4R)—N-(2-(((1R,4S)-4-(3-(((3-((5-(4-(aminomethyl)-4-methylpiperidin-1-yl)pyrazin-2-yl)thio)-2-chlorophenyl)amino)methyl)azetidine-1-carbonyl)cyclohexyl)oxy)-4-(4-methylthiazol-5-yl)benzyl)-1-((S)-2-(1-fluorocyclopropane-1-carboxamido)-3,3-dimethylbutanoyl)-4-hydroxypyrrolidine-2-carboxamide] | 63.2 | 98.4 |
| Cc1ncsc1-c1ccc(CNC(=O)[C@@H]2C[C@@H](O)CN2C(=O)[C@@H](NC(=O)C2(F)CC2)C(C)(C)C)c(OCCC2CCN(C(=O)C3CCN(c4nccc(Sc5cnc(N6CCC(C)(CN)CC6)cn5)c4Cl)CC3)CC2)c1 [Example 56, (2S,4R)—N-(2-(2-(1-(1-(4-((5-(4-(aminomethyl)-4-methylpiperidin-1-yl)pyrazin-2-yl)thio)-3-chloropyridin-2-yl)piperidine-4-carbonyl)piperidin-4-yl)ethoxy)-4-(4-methylthiazol-5-yl)benzyl)-1-((S)-2-(1-fluorocyclopropane-1-carboxamido)-3,3-dimethylbutanoyl)-4-hydroxypyrrolidine-2-carboxamide] | 55.8 | 98.6 |
| Cc1ncsc1-c1ccc(CNC(=O)[C@@H]2C[C@@H](O)CN2C(=O)[C@@H](NC(=O)C2(F)CC2)C(C)(C)C)c(O[C@H]2CC[C@H](C(=O)N3CC(Nc4cccc(Sc5cnc(N6CCC(C)(N)CC6)cn5)c4Cl)C3)CC2)c1 [Example 12, (2S,4R)—N-(2-(((1R,4S)-4-(3-((3-((5-(4-amino-4-methylpiperidin-1-yl)pyrazin-2-yl)thio)-2-chlorophenyl)amino)azetidine-1-carbonyl)cyclohexyl)oxy)-4-(4-methylthiazol-5-yl)benzyl)-1-((S)-2-(1-fluorocyclopropane-1-carboxamido)-3,3-dimethylbutanoyl)-4-hydroxypyrrolidine-2-carboxamide] | 83.7 | 98.6 |
| CC(=O)N[C@H](C(=O)N1C[C@H](O)C[C@H]1C(=O)NCc1ccc(-c2scnc2C)cc1OC1CCN(C(=O)C2CCN(c3nccc(Sc4cnc(N5CCC(C)(CN)CC5)cn4)c3Cl)CC2)CC1)C(C)(C)C [Example 75, (2S,4R)-1-((S)-2-acetamido-3,3-dimethylbutanoyl)-N-(2-((1-(1-(4-((5-(4-(aminomethyl)-4-methylpiperidin-1-yl)pyrazin-2-yl)thio)-3-chloropyridin-2-yl)piperidine-4-carbonyl)piperidin-4-yl)oxy)-4-(4-methylthiazol-5-yl)benzyl)-4-hydroxypyrrolidine-2-carboxamide] | 97.0 | 99.3 |
| Cc1ncsc1-c1ccc(CNC(=O)[C@@H]2C[C@@H](O)CN2C(=O)[C@@H](NC(=O)C2(F)CC2)C(C)(C)C)c(OC2CCN(CC3CCN(c4nccc(Sc5cnc(N6CCC(C)(CN)CC6)cn5)c4Cl)CC3)CC2)c1 [Example 9, (2S,4R)—N-(2-((1-((1-(4-((5-(4-(aminomethyl)-4-methylpiperidin-1-yl)pyrazin-2-yl)thio)-3-chloropyridin-2-yl)piperidin-4-yl)methyl)piperidin-4-yl)oxy)-4-(4-methylthiazol-5-yl)benzyl)-1-((S)-2-(1-fluorocyclopropane-1-carboxamido)-3,3-dimethylbutanoyl)-4-hydroxypyrrolidine-2-carboxamide] | 4.0 | 81.1 |
